Where a name gives a salt, the structure may show the parent alone. Read-outs that look alike come from different tables or passages of the source.
Experiments:
[1] = tested on: human telomerase (HL60 cell extract); assay: Antitelomerase activity, TRAP (extension of oligonucleotide TS and PCR amplification); assay type: biochemical; details: telomerase extract from HL60 cells
[2] = tested on: G-quadruplex of oligonucleotide GGGTTAGGGTTAGGGTTAGGG (3.5 repeats of the human telomeric motif); assay: G-quadruplex stabilizing activity, fluorescence Tm (FAM+DABCYL oligonucleotide); assay type: binding; details: test product 1 μM, oligonucleotide 0.2 μM, 0.1 M LiCl, 10 mM cacodylate pH 7.6; reference without product 44° C.
From the text: The G-quadruplex stabilizing activity may be determined by a method using the formation of a complex with fluorescein of which the experimental protocol is described below. Oligonucleotides […] The oligonucleotide FAM+DABCYL carries the catalogue reference OL-0371-0802. It has the sequence: […] The fluorescein is attached to the 5' end, the DABCYL to the 3' end, by the chemical arms described by Eurogentec. The concentration of the samples is checked by spectrophotometry, recording the absorbance spectrum between 220 and 700 nm and using the molar extinction coefficient provided by the supplier. Buffers All the experiments were carried out in a 10 mM sodium cacodylate buffer pH 7.6 containing 0.1 M lithium chloride (or sodium chloride). The absence of fluorescent contamination in the buffer was checked beforehand. The fluorescent oligonucleotide is added at the final concentration of 0.2 μM. Study of Fluorescence All the measurements of fluorescence were carried out on a Spex Fluorolog DMlB apparatus, using an excitation line width of 1.8 nm and an emission line width of 4.5 nm. The samples are placed in a microquartz cuvette of 0.2×1 cm. The temperature of the sample is controlled by an external water bath. The oligonucleotide alone was analysed at 20, 30, 40, 50, 60, 70 and 80° C. The emission spectra are recorded using an excitation wavelength of 470 nm. The excitation spectra are recorded using either 515 nm or 588 nm as emission wavelength. The spectra are corrected for the response of the instrument by reference curves. A high extinction (80-90%) of the fluorescence of fluorescein at room temperature is observed, in agreement with an intramolecular folding of the oligonucleotide at 20° C. in the form of a G-quadruplex, which induces juxtaposition of its [NT] ends which are respectively linked to fluorescein and to DABCYL. This juxtaposition causes an already-described phenomenon of extinction of fluorescence which is used for “molecular beacons”. Fluorescence Tm: […] The samples are then allowed to incubate for at least 1 hour at 20° C. before each measurement. The use of longer incubation times (up to 24 hours) has no influence on the result obtained. Each experiment allows the measurement of only one sample. The latter is first incubated at an initial temperature of 20° C., heated to 80° C. over 38 minutes, left for 5 minutes at 80° C. and then cooled to 20° C. over 62 minutes. During this time, the fluorescence is measured simultaneously at two emission wavelengths (515 nm and 588 nm) using 470 nm as excitation wavelength. A measurement is carried out every 30 seconds. The temperature of the water bath is recorded in parallel, and the fluorescence profile as a function of the temperature is reconstituted from these values. The fluorescence profiles are then normalized between 20° C. and 80° C., and the temperature for which the intensity of emission at 515 nm is the mean of those at high and low temperature is called Tm. Under these conditions, the Tm of the reference sample without addition of product is 44° C. in a lithium chloride buffer. This temperature is increased to more than 55° C. in a sodium chloride buffer. The addition of a G-quadruplex-stabilizing compound induces an increase in the Tm. This increase is judged to be significant if it is greater than […].

A549 cells = assay: Cytotoxic activity on human tumour line A549 (neutral red); assay type: cell-based; details: 96 hours incubation, read-out: Cytotox. A549 IC50
Procedure: The Cytotoxic Biological Activity on Human Tumour Lines is Determined According to the Following Experimental Protocol:
The cells at the exponential growth phase are trypsinized, washed in 1× PBS and are inoculated in 96-well microplates (Costar) in an amount of 4×10^4 cells/ml for A549 and of 1.5×10^4 cells/ml (0.2 ml/well) and then incubated for 96 hours in the presence of variable concentrations of product to be studied (10, 1, 0.1 and 0.01 μg/ml, each point in quadruplicate). 16 hours before the end of the incubation, 0.02% final of neutral red is added to each well. At the end of the incubation, the cells are washed with 1× PBS and lysed with 1% sodium lauryl sulphate. The cellular incorporation of the dye, which reflects cellular growth, is evaluated by spectrophotometry at a wavelength of 540 nm for each sample with the aid of a Dynatech MR5000 reading apparatus.
(compound value−blank value/cell control value−blank value)×100.

Row | Compound | IC50 [1] [nM] | FLUORESCENCE Tm [2] [° ° C.] | IC50 (A549 cells; Homo sapiens, A549, 96 h) [nM] | IC50 (A549 cells) [nM] | G4 Tm [2] [°C]
1 | Cc1cc(N)c2cc(Nc3nc(N)nc(Nc4ccc5c(c4)c(N)cc(C)[n+]5C)n3)ccc2[n+]1C [Example 1, 2-amino-bis-4,6-[(1′-methyl-4′-amino-6′-quinaldinio)amino]triazine dichloride] | 250 |  |  |  | 
2 | CC[n+]1c(C)cc(N)c2cc(Nc3nc(N)nc(Nc4ccc5c(c4)c(N)cc(C)[n+]5CC)n3)ccc21 [Example 2, 2-amino-bis-4,6-[(1′-ethyl-4′-amino-6′-quinaldinio)amino]triazine dichloride] | 56 | 48 | 4700 |  | 
3 | Cc1cc(N)c2cc(Nc3nc(Nc4ccc5c(c4)c(N)cc(C)[n+]5C)nc(N(C)C)n3)ccc2[n+]1C [Example 3, 2-dimethylamino-bis-4,6-[(1′-methyl-4′-amino-6′-quinaldinio)amino]triazine dichloride] | 220 | 52 |  |  | 
4 | C[n+]1cccc2cc(Nc3nc(N)nc(Nc4ccc5c(ccc[n+]5C)c4)n3)ccc21 [Example 5, 2-amino-bis-4,6-[(1′-methyl-6′-quinolinio)amino]triazine dichloride] | 130 | 57 |  |  | 
5 | C[n+]1c2ccccc2c(N)c2cc(Nc3nc(N)nc(Nc4ccc5c(c4)c(N)c4ccccc4[n+]5C)n3)ccc21 [Example 7, 2-amino-bis-4,6-[(9′-amino-10′-methyl-2′-acridinio)amino]triazine dichloride hydrochloride] | 890 | 55 | 4900 |  | 
6 | Cc1cc(N)c2cc(Nc3nc(N)nc(Nc4ccc5nc(C)cc(N)c5c4)n3)ccc2n1 [Example 8, 2-amino-bis-4,6-[(4′-amino-6′-quinaldinyl)amino]triazine trihydrochloride] | 51 |  | 9100 |  | 
7 | N=C(N)c1ccc(Nc2nc(N)nc(Nc3ccc(C(=N)N)cc3)n2)cc1 [Example 9, 2-Amino-bis-4,6-(p-amidinoanilino)triazine trihydrochloride] | 740 |  | 530 |  | 
8 | CSc1nc(Nc2ccc3c(c2)c(N)cc(C)[n+]3C)nc(Nc2ccc3c(c2)c(N)cc(C)[n+]3C)n1 [Example 10, 2-methylthio-bis-4,6-[(1′-methyl-4′-amino-6′-quinaldinio)amino]triazine dichloride] | 240 |  | 3600 |  | 
9 | Cc1cc(N)c2cc(NC(=O)Nc3ccc4nc(C)cc(N)c4c3)ccc2n1 [Example 13, N,N′-(4-amino-6-quinaldinyl)urea dihydrochloride] | 720 |  |  |  | 
10 | C[n+]1ccc(NCCCCCNc2cc[n+](C)c3cc(Cl)ccc23)c2ccc(Cl)cc21 [Example 14, N^1,N^5-bis (7-chloro-1-methyl4-quinolinio)pentane-1,5-diamine diiodide] |  |  | 6500 |  | 
11 | Cc1cc(N)c2cc(Nc3ccnc(Nc4ccc5nc(C)cc(N)c5c4)n3)ccc2n1.Cl.Cl.Cl.O.O.O.O.O [Example 15, bis-2,4-[(4′-amino-6′-quinaldinyl)amino]pyrimidine trihydrochloride pentahydrate] | 490 | 53 |  | 8700 | 
12 | Cc1cc(N)c2cc(NC(=N)NC(=N)Nc3ccc4nc(C)cc(N)c4c3)ccc2n1 [Example 16, 1,5-(4′-amino-6′-quinaldinyl)-biguanide trihydrochloride dihydrate] |  | 52 | 5800 |  | 
13 | CSc1nc(Nc2ccc3c(c2)c(=N)cc(C)n3C)nc(Nc2ccc3c(c2)c(=N)cc(C)n3C)n1 [Example 17-2] | 950 |  | 6100 |  | 
14 | CSc1nc(Nc2ccc3nc(C)cc(N)c3c2)nc(N(C)c2ccc3ncccc3c2)n1 [Example 18-1] | 3500 |  |  |  | 47
15 | CSc1nc(Nc2ccc3ncccc3c2)nc(Nc2ccc3nc(C)cc(N)c3c2)n1 [Example 18-5] | 3400 |  |  |  | 47
16 | CSc1nc(Nc2ccc(C#N)cc2)nc(Nc2ccc3nc(C)cc(N)c3c2)n1 [Example 18-7] | 3300 |  | 8000 |  | 51
17 | CSc1nc(Nc2ccc3nc(C)cc(N)c3c2)nc(Nc2ccnc3ccccc23)n1 [Example 18-8] | 3400 |  |  |  | 49
18 | COc1ccc2nccc(Nc3nc(Nc4ccc5nc(C)cc(N)c5c4)nc(SC)n3)c2c1 [Example 18-9] | 3400 |  | 9500 |  | 51
19 | CSc1nc(Nc2ccc3nc[nH]c3c2)nc(Nc2ccc3nc(C)cc(N)c3c2)n1 [Example 18-10] | 3300 |  | 10000 |  | 49
20 | CCc1cc(Nc2nc(Nc3ccc4nc(C)cc(N)c4c3)nc(SC)n2)ccn1 [Example 18-12] | 2800 |  |  |  | 
21 | CCN(CC)c1nc(Nc2ccncc2)nc(Nc2ccc3nc(C)cc(N)c3c2)n1 [Example 19-2] | 2500 |  |  |  | 53

Continued, in another order:

Row | IC50 [1] [nM] | Compound | FLUORESCENCE Tm [2] [° ° C.] | IC50 (A549 cells; Homo sapiens, A549, 96 h) [nM] | IC50 (A549 cells) [nM] | G4 Tm [2] [°C]
22 | 510 | CNc1nc(Nc2ccc3nc(C)cc(N)c3c2)nc(Nc2ccc3nc(C)cc(N)c3c2)n1 [Example 4, 2-methylamino-bis-4,6-[(4′-amino-6′-quinaldinyl)amino]triazine trihydrochloride] | 48 | 3100 |  | 
23 | 300 | CNc1nc(Nc2ccc3nc(C)cc(NC)c3c2)nc(Nc2ccc3nc(C)cc(NC)c3c2)n1 [Example 6, 2-methylamino-bis-4,6-[(4′-methylamino-6′-quinaldinyl)amino]triazine dichloride trihydrochloride] | 44 | 1900 |  | 
24 | 3000 | Cc1cc(N(C)C)c2cc(Nc3nc(Cl)nc(Nc4ccc5nc(C)cc(N(C)C)c5c4)n3)ccc2n1 [Example 11, 2-chloro-bis-4,6-[(4′-dimethylamino-6′-quinaldinyl)amino]triazine dihydrochloride dihydrate] | 57 | 5140 |  | 
25 | 41 | CSc1nc(Nc2ccc3nc(C)cc(N(C)C)c3c2)nc(Nc2ccc3nc(C)cc(N(C)C)c3c2)n1 [Example 12, 2-methylthio-bis-4,6-[(4′-dimethylamino-6′-quinaldinyl)amino]triazine hydrate] | 70 |  |  | 
26 | 49 | CSc1nc(Nc2ccc3nc(C)cc(N)c3c2)nc(Nc2ccc3nc(C)cc(N)c3c2)n1 [Example 17-1] |  | 1600 |  | 57
27 | 3900 | COc1cc(C)nc2ccc(Nc3nc(Nc4ccc5nc(C)cc(OC)c5c4)nc(SC)n3)cc12 [Example 17-3] |  | 3200 |  | 
28 | 2300 | COc1cc(C)nc2ccc(Nc3nc(Nc4ccc5nc(C)cc(N)c5c4)nc(SC)n3)cc12 [Example 18-2] |  |  |  | 49
29 | 340 | CSc1nc(Nc2ccc3nc(C)cc(N)c3c2)nc(Nc2ccc3nc(C)cc(N(C)C)c3c2)n1 [Example 18-3] |  | 10000 |  | 57
30 | 2200 | CSc1nc(Nc2ccc3nc(C)cc(C)c3c2)nc(Nc2ccc3nc(C)cc(N)c3c2)n1 [Example 18-4] |  |  |  | 50
31 | 3400 | CSc1nc(Nc2ccc3nc(C)ccc3c2)nc(Nc2ccc3nc(C)cc(N)c3c2)n1 [Example 18-13] |  |  |  | 

— US20040053966A1, “Chemical derivatives and their application as antitelomerase agent” (Aventis Pharms S.A., priority 1999, published 2004)
